From US20250163104A1, “MACROCYCLIC IMMUNOMODULATORS” (priority 2021, published 2025)
*1 amine or outer side, *2 acyl side, *3 side chain or, on linkers, in order; H or OH if unused. Where a SMILES comes first, the peptide text is derived from it. Bridges are numbered along the chain shown (N, C = ends). [ ]: non-standard residue; d: D form. The star is where a group is joined. ξ: configuration not given here. Phe(4-COOH) = N[C@@H](Cc1ccc(C(=O)O)cc1)C(=O)O; X5 = O=C([C@H](Cc1ccc2ncccc2c1)N[*:1])[*:2]; Bip = N[C@@H](Cc1ccc(-c2ccccc2)cc1)C(=O)O; Phe(4-Cl) = N[C@@H](Cc1ccc(Cl)cc1)C(=O)O; Phe(3-Me) = Cc1cccc(C[C@H](N)C(=O)O)c1; Val(3-OH) = CC(C)(O)[C@H](N)C(=O)O; 4Pal = N[C@@H](Cc1ccncc1)C(=O)O; 2Thi = N[C@@H](Cc1cccs1)C(=O)O; Cha = N[C@@H](CC1CCCCC1)C(=O)O; Cit = NC(=O)NCCC[C@H](N)C(=O)O; Ile(3ξ) = CCC(C)[C@H](N)C(=O)O; Thr(3ξ) = CC(O)[C@H](N)C(=O)O; Carboxymethyl = O=C(O)C*; Nle = CCCC[C@H](N)C(=O)O; Orn = NCCC[C@H](N)C(=O)O; Pra = C#CC[C@H](N)C(=O)O; Dab = NCC[C@H](N)C(=O)O; Dap = NC[C@H](N)C(=O)O; ξPra = C#CCC(N)C(=O)O; Propargyl = C#CC*

Molecular target: T1, human PD-1 / PD-L1-Ig binding on Jurkat cell line over-expressing human PD-1 (Jurkat-PD-1) (Homo sapiens, UniProt Q15116)
T1 construct: expressed in transfected cells; host or cells: Jurkat
T1 sequence (Q15116 25-288): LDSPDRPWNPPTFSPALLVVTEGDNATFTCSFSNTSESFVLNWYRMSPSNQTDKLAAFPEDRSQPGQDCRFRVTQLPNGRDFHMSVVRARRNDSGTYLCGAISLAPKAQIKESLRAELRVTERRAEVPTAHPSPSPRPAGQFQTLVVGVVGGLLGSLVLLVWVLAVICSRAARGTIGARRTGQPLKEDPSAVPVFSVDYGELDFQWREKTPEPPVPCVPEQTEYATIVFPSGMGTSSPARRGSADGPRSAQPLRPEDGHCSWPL
Test: Jurkat-PD-1 Cell Binding High-Content Screening Assay (CBA)
Format: cell-based
Conditions: Jurkat-PD-1 cells, PE-labeled PD-L1-Ig 20 nM final; read-out: Jurkat HPD1_PDL1 IC50
Outline: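 Jurkat-hPD-1 cells in DMEM with 10% fetal calf serum receive test compound and are held at 37° C for 2 h. PE-labeled PD-L1-Ig is added at 20 nM final and left for 1 hour. Cells are then fixed and Hoechst-stained, and binding is measured by imaging.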

Row | IC50 | SMILES
1 | 11.9 nM | Cc1cccc(C[C@@H]2NC(=O)[C@H](CC(=O)O)NC(=O)[C@H](Cc3ccc(OCC(=O)O)cc3)NC(=O)[C@H](CN)NC(=O)CSC[C@@H](C(=O)N[C@@H](CCCN)C(N)=O)NC(=O)[C@H]([C@@H](C)O)NC(=O)[C@H](C(C)C)NC(=O)[C@H](CC3CCCCC3)NC(=O)[C@H](CCN)NC(=O)[C@@H](CC(C)C)NC(=O)[C@H](CCCN)NC(=O)[C@H](CCCNC(N)=O)NC(=O)[C@H](Cc3ccc(-c4ccccc4)cc3)NC(=O)[C@H](C(C)C)NC2=O)c1 [Compound 2011] ({CH2CO}-[Dap]Y(Carboxymethyl)D[Phe(3-Me)]V[Bip][Cit][Orn][dL][Dab][Cha]VTC[Orn]-NH2; thioether N-14)
2 | 28.1 nM | C#CC[C@H](NC(=O)CNC(=O)[C@@H]1CSCC(=O)N[C@@H](CN)C(=O)N[C@@H](Cc2ccc(OCC(=O)O)cc2)C(=O)N[C@@H](CC(=O)O)C(=O)N[C@@H](Cc2cccc(C)c2)C(=O)N[C@@H](C(C)C)C(=O)N[C@@H](Cc2ccc(-c3ccccc3)cc2)C(=O)N[C@@H](CCCNC(N)=O)C(=O)N[C@@H](CCCN)C(=O)N[C@H](CC(C)C)C(=O)N[C@@H](CCN)C(=O)N[C@@H](CC2CCCCC2)C(=O)N[C@@H](C(C)C)C(=O)N[C@@H]([C@@H](C)O)C(=O)N1)C(=O)O [Compound 2260] ({CH2CO}-[Dap]Y(Carboxymethyl)D[Phe(3-Me)]V[Bip][Cit][Orn][dL][Dab][Cha]VTCG[Pra]-OH; thioether N-14)
3 | 24.4 nM | CC(C)C[C@H]1NC(=O)[C@H](CCCN)NC(=O)[C@H](CCC(=O)O)NC(=O)[C@H](Cc2ccc(-c3ccccc3)cc2)NC(=O)[C@H](C(C)C)NC(=O)[C@H](Cc2cccs2)NC(=O)[C@H](CC(=O)O)NC(=O)[C@H](Cc2cccs2)NC(=O)[C@H](Cc2ccccc2)NC(=O)CSC[C@@H](C(=O)N[C@@H](C)C(N)=O)NC(=O)[C@H]([C@@H](C)O)NC(=O)[C@H](C(C)C)NC(=O)[C@H](CC2CCCCC2)NC(=O)[C@H](CCN)NC1=O [Compound 2204] ({CH2CO}-F[2Thi]D[2Thi]V[Bip]E[Orn][dL][Dab][Cha]VTCA-NH2; thioether N-14)
4 | 23.3 nM | Cc1cccc(C[C@@H]2NC(=O)[C@H](CC(=O)O)NC(=O)[C@H](Cc3ccc(OCC(=O)O)cc3)NC(=O)[C@H]([C@@H](C)O)NC(=O)CSC[C@@H](C(N)=O)NC(=O)[C@H](CC(N)=O)NC(=O)[C@H](C(C)C)NC(=O)[C@H](CC3CCCCC3)NC(=O)[C@H](CCN)NC(=O)[C@@H](CC(C)C)NC(=O)[C@H](CCCN)NC(=O)[C@H](Cc3ccc(OCC(=O)O)cc3)NC(=O)[C@H](Cc3ccc(-c4ccccc4)cc3)NC(=O)[C@H](Cc3ccc(OCC(=O)O)cc3)NC2=O)c1 [Compound 1797] ({CH2CO}-TY(Carboxymethyl)D[Phe(3-Me)]Y(Carboxymethyl)[Bip]Y(Carboxymethyl)[Orn][dL][Dab][Cha]VNC-NH2; thioether N-14)
5 | 35.6 nM | CC(C)C[C@@H]1NC(=O)[C@H](CCN)NC(=O)[C@@H](CC(C)C)NC(=O)[C@H](CCCCN)NC(=O)[C@H](CCCNC(N)=O)NC(=O)[C@H](Cc2ccc(-c3ccccc3)cc2)NC(=O)[C@H](C(C)C)NC(=O)[C@H](Cc2c[nH]c3ccccc23)NC(=O)[C@H](CC(=O)O)NC(=O)[C@H](Cc2ccc(O)cc2)NC(=O)[C@H](CC(N)=O)NC(=O)CSC[C@@H](C(=O)N[C@@H](C)C(N)=O)NC(=O)[C@H](CO)NC(=O)[C@H](C(C)C)NC1=O [Compound 1110] ({CH2CO}-NYDWV[Bip][Cit]K[dL][Dab]LVSCA-NH2; thioether N-14)
6 | 12.4 nM | CC(C)C[C@@H]1NC(=O)[C@H](CCN)NC(=O)[C@@H](CC(C)C)NC(=O)[C@H](CCCN)NC(=O)[C@H](C(C)C)NC(=O)[C@H](Cc2ccc(-c3ccccc3)cc2)NC(=O)[C@H](C(C)C)NC(=O)[C@H](Cc2c[nH]c3ccccc23)NC(=O)[C@H](CC(=O)O)NC(=O)[C@H](Cc2ccc(C(=O)O)cc2)NC(=O)[C@H](Cc2ccc(OCC(=O)O)cc2)NC(=O)CSC[C@@H](C(=O)N[C@@H](C)C(N)=O)NC(=O)[C@H]([C@@H](C)O)NC(=O)[C@H](C(C)C)NC1=O [Compound 1248] ({CH2CO}-Y(Carboxymethyl)[Phe(4-COOH)]DWV[Bip]V[Orn][dL][Dab]LVTCA-NH2; thioether N-14)
7 | 7.5 nM | C#CCC(NC(=O)[C@H](CN)NC(=O)[C@@H]1CSCC(=O)N[C@@H](Cc2ccncc2)C(=O)N[C@@H](Cc2ccc(OCC(=O)O)cc2)C(=O)N[C@@H](CC(=O)O)C(=O)N[C@@H](Cc2c[nH]c3ccccc23)C(=O)N[C@@H](C(C)C)C(=O)N[C@@H](Cc2ccc(-c3ccccc3)cc2)C(=O)N[C@@H]([C@@H](C)CC)C(=O)N[C@@H](CCCN)C(=O)N[C@H](CC(C)C)C(=O)N[C@@H](CCN)C(=O)N[C@@H](CC(C)C)C(=O)N[C@@H](C(C)C)C(=O)N[C@@H]([C@@H](C)O)C(=O)N1)C(N)=O (stereo partly drawn) [Compound 1758] ({CH2CO}-[4Pal]Y(Carboxymethyl)DWV[Bip]I[Orn][dL][Dab]LVTC[Dap][ξPra]-NH2; thioether N-14)
8 | 21.8 nM | CCC(C)[C@@H]1NC(=O)[C@H](Cc2ccc(-c3ccccc3)cc2)NC(=O)[C@H](C(C)C)NC(=O)[C@H](Cc2c[nH]c3ccccc23)NC(=O)[C@H](CC(N)=O)NC(=O)[C@H](Cc2ccc(O)cc2)NC(=O)[C@H](CN)NC(=O)CSC[C@@H](C(=O)N[C@@H](C)C(N)=O)NC(=O)[C@H]([C@@H](C)O)NC(=O)[C@H](C(C)C)NC(=O)[C@H](CC(C)C)NC(=O)[C@H](CCN)NC(=O)[C@@H](CC(C)C)NC(=O)[C@H](CCCCN)NC1=O (stereo partly drawn) [Compound 1091] ({CH2CO}-[Dap]YNWV[Bip][Ile(3ξ)]K[dL][Dab]LVTCA-NH2; thioether N-14)
9 | 8.8 nM | Cc1cccc(C[C@@H]2NC(=O)[C@H](CC(=O)O)NC(=O)[C@H](Cc3ccc(OCC(=O)O)cc3)NC(=O)[C@H](C(C)O)NC(=O)CSC[C@@H](C(=O)N[C@@H](CCN)C(N)=O)NC(=O)[C@H](C(C)O)NC(=O)[C@H](C(C)(C)O)NC(=O)[C@H](CC3CCCCC3)NC(=O)[C@H](CCN)NC(=O)[C@@H](CC(C)C)NC(=O)[C@H](CCCN)NC(=O)[C@H](CCCNC(N)=O)NC(=O)[C@H](Cc3ccc(-c4ccccc4)cc3)NC(=O)[C@H](C(C)C)NC2=O)c1 (stereo partly drawn) [Compound 2632] ({CH2CO}-[Thr(3ξ)]Y(Carboxymethyl)D[Phe(3-Me)]V[Bip][Cit][Orn][dL][Dab][Cha][Val(3-OH)][Thr(3ξ)]C[Dab]-NH2; thioether N-14)
10 | 45.6 nM | CC(C)C[C@H]1NC(=O)[C@H](CCCN)NC(=O)[C@H](CCCNC(N)=O)NC(=O)[C@H](Cc2ccc(-c3ccccc3)cc2)NC(=O)[C@H](C(C)C)NC(=O)[C@H](Cc2c[nH]c3ccccc23)NC(=O)[C@H](CC(=O)O)NC(=O)[C@H](Cc2ccc(Cl)cc2)NC(=O)[C@H](CN)NC(=O)CSC[C@@H](C(=O)N[C@@H](C)C(N)=O)NC(=O)[C@H]([C@@H](C)O)NC(=O)[C@H](C(C)C)NC(=O)[C@H](CC2CCCCC2)NC(=O)[C@H](CCN)NC1=O [Compound 2102] ({CH2CO}-[Dap][Phe(4-Cl)]DWV[Bip][Cit][Orn][dL][Dab][Cha]VTCA-NH2; thioether N-14)
11 | 65.1 nM | CC(C)C[C@H]1NC(=O)[C@H](CCCN)NC(=O)[C@H](CCC(=O)O)NC(=O)[C@H](Cc2ccc(-c3ccccc3)cc2)NC(=O)[C@H](C(C)C)NC(=O)[C@H](Cc2c[nH]c3ccccc23)NC(=O)[C@H](CC(=O)O)NC(=O)[C@H](Cc2ccc3ncccc3c2)NC(=O)[C@H](Cc2ccncc2)NC(=O)CSC[C@@H](C(=O)N[C@@H](C)C(N)=O)NC(=O)[C@H]([C@@H](C)O)NC(=O)[C@H](C(C)C)NC(=O)[C@H](CC2CCCCC2)NC(=O)[C@H](CCN)NC1=O [Compound 2179] ({CH2CO}-[4Pal][X5]DWV[Bip]E[Orn][dL][Dab][Cha]VTCA-NH2; thioether N-14)
12 | 7.6 nM | C#CCOc1ccc(C[C@@H]2NC(=O)[C@H](Cc3ccc(-c4ccccc4)cc3)NC(=O)[C@H](Cc3ccc(OCC(=O)O)cc3)NC(=O)[C@H](Cc3cccc(C)c3)NC(=O)[C@H](CC(=O)O)NC(=O)[C@H](Cc3ccc(OCC(=O)O)cc3)NC(=O)[C@H](CCCC)NC(=O)CSC[C@@H](C(=O)N[C@@H](CCN)C(N)=O)NC(=O)[C@H](CCC(=O)O)NC(=O)[C@H](C(C)C)NC(=O)[C@H](CC3CCCCC3)NC(=O)[C@H](CCN)NC(=O)[C@@H](CC(C)C)NC(=O)[C@H](CCCN)NC2=O)cc1 [Compound 1838] ({CH2CO}-[Nle]Y(Carboxymethyl)D[Phe(3-Me)]Y(Carboxymethyl)[Bip]Y(Propargyl)[Orn][dL][Dab][Cha]VEC[Dab]-NH2; thioether N-14)
13 | 12.4 nM | CC(C)C[C@@H]1NC(=O)[C@H](Cc2c[nH]c3ccccc23)NC(=O)[C@H](CC(=O)O)NC(=O)[C@H](Cc2ccc(O)cc2)NC(=O)[C@H](Cc2ccccc2)NC(=O)CSC[C@@H](C(=O)N[C@@H](C)C(N)=O)NC(=O)[C@H]([C@@H](C)O)NC(=O)[C@H](C(C)C)NC(=O)[C@H](CC(C)C)NC(=O)[C@H](CCN)NC(=O)[C@@H](CC(C)C)NC(=O)[C@H](CCN)NC(=O)[C@H](C(C)C)NC(=O)[C@H](Cc2ccc(-c3ccccc3)cc2)NC1=O [Compound 1062] ({CH2CO}-FYDWL[Bip]V[Dab][dL][Dab]LVTCA-NH2; thioether N-14)
14 | 13.6 nM | C#CCOc1ccc(C[C@@H]2NC(=O)[C@H](Cc3ccc(-c4ccccc4)cc3)NC(=O)[C@H](C(C)C)NC(=O)[C@H](Cc3cccc(C)c3)NC(=O)[C@H](CC(=O)O)NC(=O)[C@H](Cc3ccc(C(=O)O)cc3)NC(=O)[C@H](CN)NC(=O)CSC[C@@H](C(=O)N[C@@H](CCN)C(N)=O)NC(=O)[C@H]([C@@H](C)O)NC(=O)[C@H](C(C)C)NC(=O)[C@H](CC3CCCCC3)NC(=O)[C@H](CCN)NC(=O)[C@@H](CC(C)C)NC(=O)[C@H](CCCN)NC2=O)cc1 [Compound 2024] ({CH2CO}-[Dap][Phe(4-COOH)]D[Phe(3-Me)]V[Bip]Y(Propargyl)[Orn][dL][Dab][Cha]VTC[Dab]-NH2; thioether N-14)
